The target in one assay is Mcl-1 protein (Homo sapiens, UniProt Q07820). The experiment in a line: Inhibition of Mcl-1 by the fluorescence polarisation technique. In kind it is binding. Particulars: fluorescence polarisation test; read-out: IC50 (M) Mcl-LFP. As to the method:
The relative, binding potency of each compound was determined via Fluorescence Polarisation (FP). The method utilised a Fluorescein labelled ligand (Fluorescein-βAla-Ahx-A-REIGAQLRRMADDLNAQY-OH; mw 2,765) which binds to the Mcl-1 protein (such that Mcl-1 corresponds to the UniProtKB® primary accession number: Q07820) leading to an increased anisotropy measured in milli-polarisation (mP) units using a reader. The addition of a compound which binds competitively to the same site as the ligand will result in a greater proportion of unbound ligand in the system indicated by a decrease in mP units.
An 11 point serial dilution of each compound was prepared in DMSO and 2 μl transferred into flat bottomed, low binding, 384-well plate (final DMSO concentration 5%), 38 μl of buffer (10 mM 4-(2-hydroxyethyl)-1-piperazineethanesolfonic acid [HEPES], 150 mM NaCl, 0.05% Tween 20, pH 7.4), containing the Fluorescein labelled ligand (final concentration 1 nM) and Mcl-1 protein (final concentration 5 nM) was then added.
Assay plates were incubated ˜2 hours at room temperature before FP was measured on a […] Synergy2 reader (Ex. 528 nm, Em. 640 nm, Cut off 510 nm) and mP units calculated. The binding of increasing doses of test compound was expressed as a percentage reduction in mP compared to a window established between ‘5% DMSO only’ and ‘100% inhibition’ controls. 11-point dose response curves were plotted with XL-Fit software using a 4-Parameter Logistic Model (Sigmoidal Dose-Response Model) and the inhibitory concentrations that gave a 50% reduction in mP (IC50) were determined.
On the technique in general: Polarisation of emitted light reports the rotation of a fluorescent probe.

Assay [1] relates to H929 multiple myeloma tumour line. The experiment in a line: In vitro cytotoxicity (MTT). In kind it is cell-based. The conditions noted are these: 48 hours exposure. As to the method:
The cytotoxicity studies were carried out on the H929 multiple myeloma tumour line.
The cells are distributed onto microplates and exposed to the test compound for 48 hours.
The cell viability is then quantified by a colorimetric assay, the Microculture Tetrazolium Assay (Carmichael et al. Cancer Res. 1987, 47, 936-942).

Setting [2] is: Homo sapiens, NCI-H929, H929 cells.

Drawing on US10457689B2, “Ammonium derivatives, a process for their preparation and pharmaceutical compositions containing them” (LES LABORATOIRES SERVIER, priority 2016, dated 2019), this text covers IC50 for 13 compounds.

Counter-ions that a name gives are not always drawn.

Chain of Mcl-1 protein (Q07820 whole entry): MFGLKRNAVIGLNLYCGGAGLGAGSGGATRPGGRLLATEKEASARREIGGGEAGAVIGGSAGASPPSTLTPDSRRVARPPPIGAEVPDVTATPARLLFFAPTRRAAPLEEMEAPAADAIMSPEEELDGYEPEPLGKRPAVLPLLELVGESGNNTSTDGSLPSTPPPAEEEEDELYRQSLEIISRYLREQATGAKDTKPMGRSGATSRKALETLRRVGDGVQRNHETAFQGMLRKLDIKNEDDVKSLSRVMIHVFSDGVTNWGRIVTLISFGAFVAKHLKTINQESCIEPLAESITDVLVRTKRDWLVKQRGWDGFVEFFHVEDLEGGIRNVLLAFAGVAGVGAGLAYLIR

The IC50 is the concentration that inhibits the measured activity by half. On to `COc1ccccc1-c1nccc(COc2ccccc2CC(Oc2ncnc3sc(-c4ccc(F)cc4)c(-c4ccc(OCCN5CC[N+](C)(Cc6oc(=O)oc6C)CC5)c(Cl)c4C)c23)C(=O)O)n1` [Example 22, 4-[2-(4-{(5Sa)-4-[(1R)-1-carboxy-2-(2-{[2-(2-methoxyphenyl)pyrimidin-4-yl]methoxy}phenyl)ethoxy]-6-(4-fluorophenyl)thieno[2,3-d]pyrimidin-5-yl}-2-chloro-3-methylphenoxy)ethyl]-1-methyl-1-[(5-methyl-2-oxo-1,3-dioxol-4-yl)methyl]piperazin-1-ium trifluoroacetate], for which the 50% inhibitory concentration (IC50) at Mcl-1 protein was 9.48e-10 M; in assay [1] (H929 cells), 2.23 nM.
As to `CCN(CC)C(=O)OC(C)[N+]1(C)CCN(CCOc2ccc(-c3c(-c4ccc(F)cc4)sc4ncnc(OC(Cc5ccccc5OCc5ccnc(-c6ccccc6OC)n5)C(=O)O)c34)c(Br)c2Cl)CC1` [Example 29, 4-[2-(3-bromo-4-{(5Sa)-4-[(1R)-1-carboxy-2-(2-{[2-(2-methoxyphenyl)pyrimidin-4-yl]methoxy}phenyl)ethoxy]-6-(4-fluorophenyl)thieno[2,3-d]pyrimidin-5-yl}-2-chlorophenoxy)ethyl]-1-{1-[(diethylcarbamoyl)oxy]ethyl}-1-methylpiperazin-1-ium trifluoroacetate], the figures for the half-maximal inhibitory concentration (IC50) (on Mcl-1 protein; in assay [1] (H929 cells)) were 1.36e-09 M and 136 nM, respectively.
In the case of “4-[2-(4-{(5Sa)-4-[(1R)-1-carboxy-2-(2-{[2-(2-methoxyphenyl)pyrimidin-4-yl]methoxy}phenyl)ethoxy]-6-(4-fluorophenyl)thieno[2,3-d]pyrimidin-5-yl}-2-chloro-3-methylphenoxy)ethyl]-1-{[(diethylcarbamoyl)oxy]methyl}-1-methylpiperazin-1-ium trifluoroacetate [Example 19]”, the values for the half-inhibitory concentration (IC50) (on Mcl-1 protein; in assay [1] (H929 cells)) were 1.2e-09 M and 1640 nM, respectively.
Regarding `COc1ccccc1-c1nccc(COc2ccccc2CC(Oc2ncnc3sc(-c4ccc(F)cc4)c(-c4ccc(OCCN5CC[N+](C)(COC(C)=O)CC5)c(Cl)c4C)c23)C(=O)O)n1` [Example 17, 1-[(acetyloxy)methyl]-4-[2-(4-{(5Sa)-4-[(1R)-1-carboxy-2-(2-{[2-(2-methoxyphenyl)pyrimidin-4-yl]methoxy}phenyl)ethoxy]-6-(4-fluorophenyl)thieno[2,3-d]pyrimidin-5-yl}-2-chloro-3-methylphenoxy)ethyl]-1-methylpiperazin-1-ium trifluoroacetate], the IC50 at Mcl-1 protein was 1.12e-09 M; in assay [1] (H929 cells) it was 2.15 nM.
The matching figures for `CCN(CC)C(=O)OC(C)[N+]1(C)CCN(CCOc2ccc(-c3c(-c4ccc(F)cc4)sc4ncnc(O[C@H](Cc5ccccc5OCc5ccnc(-c6ccccc6OC)n5)C(=O)O)c34)c(C)c2Cl)CC1` (stereo partly drawn) [Example 21, 4-[2-(4-{(5Sa)-4-[(1R)-1-carboxy-2-(2-{[2-(2-methoxyphenyl)pyrimidin-4-yl]methoxy}phenyl)ethoxy]-6-(4-fluorophenyl)thieno[2,3-d]pyrimidin-5-yl}-2-chloro-3-methylphenoxy)ethyl]-1-{1-[(diethylcarbamoyl)oxy]ethyl}-1-methylpiperazin-1-ium trifluoroacetate]: 1.96e-09 M and 70.4 nM.
With `COc1ccccc1-c1nccc(COc2ccccc2CC(Oc2ncnc3sc(-c4ccc(F)cc4)c(-c4ccc(OCCN5CC[N+](C)(COC(=O)C(C)(C)C)CC5)c(Cl)c4C)c23)C(=O)O)n1` [Example 24, 4-[2-(4-{(5Sa)-4-[(1R)-1-carboxy-2-(2-{[2-(2-methoxyphenyl)pyrimidin-4-yl]methoxy}phenyl)ethoxy]-6-(4-fluorophenyl)thieno[2,3-d]pyrimidin-5-yl}-2-chloro-3-methylphenoxy)ethyl]-1-{[(2,2-dimethylpropanoyl)oxy]methyl}-1-methylpiperazin-1-ium trifluoroacetate], the half-inhibitory concentration (IC50) on Mcl-1 protein came out at 1.04e-09 M; in assay [1] (H929 cells), 2.52 nM.
For `CCN(CC)C(=O)OC[N+]1(C)CCN(CCOc2ccc(-c3c(-c4ccc(F)cc4)sc4ncnc(OC(Cc5ccccc5OCc5ccnc(-c6ccccc6OC)n5)C(=O)O)c34)c(Br)c2Cl)CC1` [Example 27, 1-[2-(3-bromo-4-{(5Sa)-4-[(1R)-1-carboxy-2-(2-{[2-(2-methoxyphenyl)pyrimidin-4-yl]methoxy}phenyl)ethoxy]-6-(4-fluorophenyl)thieno[2,3-d]pyrimidin-5-yl}-2-chlorophenoxy)ethyl]-1-{[(diethylcarbamoyl)oxy]methyl}-1-methylpiperazin-1-ium trifluoroacetate], in that order: 1.17e-09 M and 1900 nM.
Regarding `CCOC(=O)OC[N+]1(C)CCN(CCOc2ccc(-c3c(-c4ccc(F)cc4)sc4ncnc(OC(Cc5ccccc5OCc5ccnc(-c6ccccc6OC)n5)C(=O)O)c34)c(C)c2Cl)CC1` [Example 18, 4-[2-(4-{(5Sa)-4-[(1R)-1-carboxy-2-(2-{[2-(2-methoxyphenyl)pyrimidin-4-yl]methoxy}phenyl)ethoxy]-6-(4-fluorophenyl)thieno[2,3-d]pyrimidin-5-yl}-2-chloro-3-methylphenoxy)ethyl]-1-{[(ethoxycarbonyl)oxy]methyl}-1-methylpiperazin-1-ium], the IC50 on Mcl-1 protein was 9.48e-10 M; in assay [1] (setting [2]), 1.74 nM.
The matching figures for `COc1ccccc1-c1nccc(COc2ccccc2CC(Nc2ncnc3sc(-c4ccc(F)cc4)c(-c4ccc(OCCN5CC[N+](C)(COP(=O)([O-])O)CC5)c(Cl)c4C)c23)C(=O)O)n1` [Example 8, N-[(5Sa)-5-{3-chloro-4-[2-(4-{[(hydroxyphosphinato)oxy]methyl}-4-methylpiperazin-4-ium-1-yl)ethoxy]-2-methylphenyl}-6-(4-fluorophenyl)thieno[2,3-d]pyrimidin-4-yl]-2-{[2-(2-methoxyphenyl)pyrimidin-4-yl]methoxy}-D-phenylalanine]: 9.48e-10 M and 229 nM.
As for `COc1ccccc1-c1nccc(COc2ccccc2C[C@@H](Oc2ncnc3sc(-c4ccc(F)cc4)c(-c4ccc(OCCN5CC[N+](C)(Cc6oc(=O)oc6C)CC5)c(Cl)c4Br)c23)C(=O)O)n1` [Example 30, 4-[2-(3-bromo-4-{(5Sa)-4-[(1R)-1-carboxy-2-(2-{[2-(2-methoxyphenyl)pyrimidin-4-yl]methoxy}phenyl)ethoxy]-6-(4-fluorophenyl)thieno[2,3-d]pyrimidin-5-yl}-2-chlorophenoxy)ethyl]-1-methyl-1-[(5-methyl-2-oxo-1,3-dioxol-4-yl)methyl]piperazin-1-ium trifluoroacetate], the figures for the IC50 (on Mcl-1 protein; in assay [1] (H929 cells)) were 9.48e-10 M and 2.81 nM, respectively.
The matching figures for `CCOC(=O)OC[N+]1(C)CCN(CCOc2ccc(-c3c(-c4ccc(F)cc4)sc4ncnc(OC(Cc5ccccc5OCc5ccnc(-c6ccccc6OC)n5)C(=O)O)c34)c(Br)c2Cl)CC1` [Example 26, 4-[2-(3-bromo-4-{(5Sa)-4-[(1R)-1-carboxy-2-(2-{[2-(2-methoxyphenyl)pyrimidin-4-yl]methoxy}phenyl)ethoxy]-6-(4-fluorophenyl)thieno[2,3-d]pyrimidin-5-yl}-2-chlorophenoxy)ethyl]-1-{[(ethoxycarbonyl)oxy]methyl}-1-methylpiperazin-1-ium trifluoroacetate]: 9.48e-10 M and 2.29 nM.
Turning to `COc1ccccc1-c1nccc(COc2ccccc2CC(Oc2ncnc3sc(-c4ccc(F)cc4)c(-c4ccc(OCCN5CC[N+](C)(COP(=O)([O-])OCc6ccccc6)CC5)c(Cl)c4C)c23)C(=O)O)n1` [Example 2, benzyl {4-[2-(4-{(5Sa)-4-[(1R)-1-carboxy-2-(2-{[2-(2-methoxyphenyl)pyrimidin-4-yl]methoxy}phenyl)ethoxy]-6-(4-fluorophenyl)thieno[2,3-d]pyrimidin-5-yl}-2-chloro-3-methylphenoxy)ethyl]-1-methylpiperazin-1-ium-1-yl}methyl phosphate], the IC50 at Mcl-1 protein turned out to be 9.48e-10 M; in assay [1] (setting [2]), 10.9 nM.
As for `COc1ccccc1-c1nccc(COc2ccccc2C[C@@H](Oc2ncnc3sc(-c4ccc(F)cc4)c(-c4ccc(OCCN5CC[N+](C)(COC(=O)C(C)(C)C)CC5)c(Cl)c4Br)c23)C(=O)O)n1` [Example 32, 4-[2-(3-bromo-4-{(5Sa)-4-[(1R)-1-carboxy-2-(2-{[2-(2-methoxyphenyl)pyrimidin-4-yl]methoxy}phenyl)ethoxy]-6-(4-fluorophenyl)thieno[2,3-d]pyrimidin-5-yl}-2-chlorophenoxy)ethyl]-1-{[(2,2-dimethylpropanoyl)oxy]methyl}-1-1-methyl piperazin-1-ium trifluoroacetate], the concentration for half-maximal inhibition (IC50) on Mcl-1 protein came to 1.77e-09 M; in assay [1] (H929 cells), 2.11 nM.
